# ChEMBL document CHEMBL1201862, “PubChem BioAssay data set” (2004)
# The source made the active and inactive calls.
# Experiments:
# [1] = biological target: T1, Corticotropin-releasing factor receptor 2/Corticotropin-releasing factor-binding protein (Homo sapiens, UniProt P24387+Q13324); experiment: activators of CRF receptor 2 with binding protein – uHTS hits, confirmation (AID 602473); format: functional; details: read-out: EC50_Mean
# T1 sequence (Q13324 whole entry): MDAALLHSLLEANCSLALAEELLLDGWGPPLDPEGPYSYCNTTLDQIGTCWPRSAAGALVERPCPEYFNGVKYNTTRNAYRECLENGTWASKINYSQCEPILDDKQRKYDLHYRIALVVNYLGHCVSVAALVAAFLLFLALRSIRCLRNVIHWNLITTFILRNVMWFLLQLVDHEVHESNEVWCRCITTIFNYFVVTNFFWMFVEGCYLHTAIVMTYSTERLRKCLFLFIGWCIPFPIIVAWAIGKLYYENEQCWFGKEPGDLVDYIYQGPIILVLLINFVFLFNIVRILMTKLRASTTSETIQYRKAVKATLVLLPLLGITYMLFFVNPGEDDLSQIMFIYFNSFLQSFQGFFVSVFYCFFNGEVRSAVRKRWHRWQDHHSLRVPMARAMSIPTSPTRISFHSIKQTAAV
# T1 sequence (P24387 whole entry): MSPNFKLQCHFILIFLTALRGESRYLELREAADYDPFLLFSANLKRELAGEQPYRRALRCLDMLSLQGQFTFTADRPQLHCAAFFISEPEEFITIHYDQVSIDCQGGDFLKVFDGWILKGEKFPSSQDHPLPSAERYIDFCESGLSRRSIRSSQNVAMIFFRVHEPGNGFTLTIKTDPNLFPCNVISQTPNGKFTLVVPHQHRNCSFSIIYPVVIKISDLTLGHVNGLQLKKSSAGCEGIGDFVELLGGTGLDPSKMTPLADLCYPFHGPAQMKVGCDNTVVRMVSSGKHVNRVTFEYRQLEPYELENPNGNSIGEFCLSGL
# Caspase-7 = Caspase-7 (Homo sapiens, UniProt P55210); experiment: caspase-7 enzyme inhibition, selectivity check – biochemical, DEVD-R110 fluorescence, cherry-pick, selectivity assay for caspase-6 inhibitor project, dose response (AID 743295); format: functional
# [2] = biological target: T2, Replicative DNA helicase DnaB (Mycobacterium tuberculosis, UniProt P9WMR3); experiment: DnaB intein splicing inhibitors, dose response, biochemical, cell-free fluorescence (AID 449749); format: functional
# T2 sequence (P9WMR3 whole entry): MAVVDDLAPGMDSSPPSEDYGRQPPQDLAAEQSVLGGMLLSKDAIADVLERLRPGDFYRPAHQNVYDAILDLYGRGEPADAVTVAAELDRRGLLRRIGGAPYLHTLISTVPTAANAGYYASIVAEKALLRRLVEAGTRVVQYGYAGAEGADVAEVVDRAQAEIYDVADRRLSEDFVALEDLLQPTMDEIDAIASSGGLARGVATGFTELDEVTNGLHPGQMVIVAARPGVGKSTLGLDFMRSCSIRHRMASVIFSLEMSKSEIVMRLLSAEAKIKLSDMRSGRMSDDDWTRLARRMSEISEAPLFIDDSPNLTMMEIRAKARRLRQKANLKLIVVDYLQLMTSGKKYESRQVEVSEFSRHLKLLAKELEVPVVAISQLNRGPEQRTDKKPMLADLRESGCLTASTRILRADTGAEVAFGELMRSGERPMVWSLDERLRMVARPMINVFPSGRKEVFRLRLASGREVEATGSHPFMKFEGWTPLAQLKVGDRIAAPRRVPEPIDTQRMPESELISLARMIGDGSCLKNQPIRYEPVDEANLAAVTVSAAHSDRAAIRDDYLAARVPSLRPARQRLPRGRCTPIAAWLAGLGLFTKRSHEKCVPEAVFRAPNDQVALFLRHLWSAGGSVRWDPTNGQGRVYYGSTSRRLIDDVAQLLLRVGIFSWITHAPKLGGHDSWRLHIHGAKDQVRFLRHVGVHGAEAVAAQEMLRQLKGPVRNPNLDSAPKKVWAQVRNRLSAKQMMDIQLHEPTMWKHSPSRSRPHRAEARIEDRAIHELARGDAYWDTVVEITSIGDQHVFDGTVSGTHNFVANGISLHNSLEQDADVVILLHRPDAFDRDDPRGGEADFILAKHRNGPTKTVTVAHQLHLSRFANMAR
# [3] = biological target: Serine/threonine-protein kinase PAK 1 (Homo sapiens, UniProt Q13153); format: functional
# [4] = biological target: Serine/threonine-protein kinase Chk1 (Homo sapiens, UniProt O14757); format: functional;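 further: measured as one member of a kinome-wide kinase profiling panel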
# [5] = biological target: STE20-like serine/threonine-protein kinase (Homo sapiens, UniProt Q9H2G2); format: functional
# [6] = biological target: Non-receptor tyrosine-protein kinase TYK2 (Homo sapiens, UniProt P29597); format: functional
# [7] = biological target: Dual specificity tyrosine-phosphorylation-regulated kinase 3 (Homo sapiens, UniProt O43781); format: functional;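 further: measured as one member of a broad kinase panel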
# SRSF protein kinase 1 = SRSF protein kinase 1 (Homo sapiens, UniProt Q96SB4); format: functional;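 further: measured as one member of a kinome-wide kinase profiling panel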
# [8] = biological target: Polyadenylate-binding protein 1 (Homo sapiens, UniProt P11940); experiment: MLLE domain peptide-binding blockers, IC50 – biochemical, fluorescence polarization, FITC-PAM2 peptide, dose response (AID 602259); format: functional; details: read-out: IC50_Mean
# [9] = biological target: cGMP-dependent protein kinase 1 (Homo sapiens, UniProt Q13976); format: functional;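 further: value from a kinome panel screen with PRKG1 as the panel member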
# [10] = biological target: Hepatocyte growth factor receptor (Homo sapiens, UniProt P08581); format: functional;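 further: kinase panel profiling across the kinome, with MET as the panel member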
# [11] = biological target: Receptor-type tyrosine-protein kinase FLT3 (Homo sapiens, UniProt P36888); format: functional;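 further: FLT3 was tested as one member of a kinome-wide kinase panel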
# [12] = biological target: Mitogen-activated protein kinase 1 (Homo sapiens, UniProt P28482); format: functional
# [13] = biological target: 5'-AMP-activated protein kinase catalytic subunit alpha-1 (Homo sapiens, UniProt Q13131); format: functional
# [14] = biological target: Serine/threonine-protein kinase pim-3 (Homo sapiens, UniProt Q86V86); format: functional;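 further: value obtained as one member of a broad kinase panel profiling effort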
# [15] = biological target: Tyrosine-protein kinase Fyn (Homo sapiens, UniProt P06241); format: functional
# Sequence of 5'-AMP-activated protein kinase catalytic subunit alpha-1 (Q13131 whole entry): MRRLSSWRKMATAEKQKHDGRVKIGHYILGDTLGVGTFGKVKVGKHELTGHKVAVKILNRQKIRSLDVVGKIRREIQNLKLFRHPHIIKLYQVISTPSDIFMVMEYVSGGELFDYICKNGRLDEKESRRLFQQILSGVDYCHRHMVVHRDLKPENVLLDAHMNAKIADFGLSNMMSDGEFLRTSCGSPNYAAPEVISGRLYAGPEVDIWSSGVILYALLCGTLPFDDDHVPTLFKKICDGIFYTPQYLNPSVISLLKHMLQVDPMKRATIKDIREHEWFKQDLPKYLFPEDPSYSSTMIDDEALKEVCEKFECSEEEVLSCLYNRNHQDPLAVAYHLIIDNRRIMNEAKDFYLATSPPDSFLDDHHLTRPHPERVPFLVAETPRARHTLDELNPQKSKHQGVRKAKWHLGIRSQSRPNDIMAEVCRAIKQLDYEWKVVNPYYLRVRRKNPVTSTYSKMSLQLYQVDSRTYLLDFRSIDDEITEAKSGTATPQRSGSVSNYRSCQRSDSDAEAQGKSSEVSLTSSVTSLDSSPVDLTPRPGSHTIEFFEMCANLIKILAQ
# Sequence of Hepatocyte growth factor receptor (P08581 whole entry): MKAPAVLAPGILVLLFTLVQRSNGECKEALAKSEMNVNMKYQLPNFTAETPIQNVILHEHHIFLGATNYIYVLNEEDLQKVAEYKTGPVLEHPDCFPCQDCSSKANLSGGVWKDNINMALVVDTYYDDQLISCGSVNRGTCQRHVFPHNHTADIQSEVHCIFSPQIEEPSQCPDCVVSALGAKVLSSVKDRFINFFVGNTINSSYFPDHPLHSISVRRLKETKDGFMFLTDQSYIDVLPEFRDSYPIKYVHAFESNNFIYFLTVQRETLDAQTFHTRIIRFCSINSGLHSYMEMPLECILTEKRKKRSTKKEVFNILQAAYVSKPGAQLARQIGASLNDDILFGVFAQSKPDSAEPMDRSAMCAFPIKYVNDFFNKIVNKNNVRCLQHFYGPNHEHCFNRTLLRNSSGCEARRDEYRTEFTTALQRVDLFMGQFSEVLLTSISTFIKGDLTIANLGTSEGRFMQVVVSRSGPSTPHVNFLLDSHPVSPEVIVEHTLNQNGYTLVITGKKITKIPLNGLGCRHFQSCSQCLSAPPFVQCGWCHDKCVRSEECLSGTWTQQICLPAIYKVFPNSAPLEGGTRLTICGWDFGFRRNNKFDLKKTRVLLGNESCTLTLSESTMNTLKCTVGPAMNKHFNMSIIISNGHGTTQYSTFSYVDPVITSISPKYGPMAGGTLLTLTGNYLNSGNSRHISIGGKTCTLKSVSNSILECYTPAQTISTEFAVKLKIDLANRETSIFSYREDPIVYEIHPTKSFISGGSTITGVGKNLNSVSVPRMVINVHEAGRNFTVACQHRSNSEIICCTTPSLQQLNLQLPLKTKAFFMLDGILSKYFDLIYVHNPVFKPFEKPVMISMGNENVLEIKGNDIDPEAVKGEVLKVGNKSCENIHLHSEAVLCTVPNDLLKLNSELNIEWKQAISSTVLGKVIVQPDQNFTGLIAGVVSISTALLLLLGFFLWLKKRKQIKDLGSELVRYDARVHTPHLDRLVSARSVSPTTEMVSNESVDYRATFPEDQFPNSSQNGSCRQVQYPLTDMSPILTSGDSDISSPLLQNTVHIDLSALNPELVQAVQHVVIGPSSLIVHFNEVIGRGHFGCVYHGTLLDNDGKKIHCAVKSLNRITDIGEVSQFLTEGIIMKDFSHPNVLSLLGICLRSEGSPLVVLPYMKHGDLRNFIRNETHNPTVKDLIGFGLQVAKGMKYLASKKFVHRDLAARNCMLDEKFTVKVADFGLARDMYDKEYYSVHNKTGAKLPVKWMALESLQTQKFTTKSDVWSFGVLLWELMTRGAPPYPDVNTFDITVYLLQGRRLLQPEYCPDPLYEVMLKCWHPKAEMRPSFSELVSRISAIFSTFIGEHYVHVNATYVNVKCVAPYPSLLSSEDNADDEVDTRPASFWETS
# Sequence of Caspase-7 (P55210 24-198 limits assumed): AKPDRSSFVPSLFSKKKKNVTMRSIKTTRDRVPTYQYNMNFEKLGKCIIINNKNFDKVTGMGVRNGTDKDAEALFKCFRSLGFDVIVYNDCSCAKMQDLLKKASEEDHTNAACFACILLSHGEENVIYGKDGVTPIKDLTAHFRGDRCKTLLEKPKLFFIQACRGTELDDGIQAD
# Sequence of Caspase-7 (P55210 207-303 limits assumed): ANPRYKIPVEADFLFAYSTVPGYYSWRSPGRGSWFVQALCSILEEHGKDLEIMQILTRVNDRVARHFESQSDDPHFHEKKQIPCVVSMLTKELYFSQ
# Sequence of Serine/threonine-protein kinase Chk1 (O14757 whole entry): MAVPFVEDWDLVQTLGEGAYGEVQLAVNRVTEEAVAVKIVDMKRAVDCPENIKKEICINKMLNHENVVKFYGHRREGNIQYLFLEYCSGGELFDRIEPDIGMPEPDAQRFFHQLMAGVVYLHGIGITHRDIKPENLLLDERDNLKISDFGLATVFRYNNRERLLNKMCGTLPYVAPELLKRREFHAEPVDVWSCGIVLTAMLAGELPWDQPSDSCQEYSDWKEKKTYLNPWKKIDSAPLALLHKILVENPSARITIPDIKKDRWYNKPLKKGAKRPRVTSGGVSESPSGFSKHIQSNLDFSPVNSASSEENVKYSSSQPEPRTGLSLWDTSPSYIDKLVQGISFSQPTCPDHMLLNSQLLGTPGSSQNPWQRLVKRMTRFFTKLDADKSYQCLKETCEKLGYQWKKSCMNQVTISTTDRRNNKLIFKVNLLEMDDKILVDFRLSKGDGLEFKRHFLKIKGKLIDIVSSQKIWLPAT
# Sequence of cGMP-dependent protein kinase 1 (Q13976 whole entry): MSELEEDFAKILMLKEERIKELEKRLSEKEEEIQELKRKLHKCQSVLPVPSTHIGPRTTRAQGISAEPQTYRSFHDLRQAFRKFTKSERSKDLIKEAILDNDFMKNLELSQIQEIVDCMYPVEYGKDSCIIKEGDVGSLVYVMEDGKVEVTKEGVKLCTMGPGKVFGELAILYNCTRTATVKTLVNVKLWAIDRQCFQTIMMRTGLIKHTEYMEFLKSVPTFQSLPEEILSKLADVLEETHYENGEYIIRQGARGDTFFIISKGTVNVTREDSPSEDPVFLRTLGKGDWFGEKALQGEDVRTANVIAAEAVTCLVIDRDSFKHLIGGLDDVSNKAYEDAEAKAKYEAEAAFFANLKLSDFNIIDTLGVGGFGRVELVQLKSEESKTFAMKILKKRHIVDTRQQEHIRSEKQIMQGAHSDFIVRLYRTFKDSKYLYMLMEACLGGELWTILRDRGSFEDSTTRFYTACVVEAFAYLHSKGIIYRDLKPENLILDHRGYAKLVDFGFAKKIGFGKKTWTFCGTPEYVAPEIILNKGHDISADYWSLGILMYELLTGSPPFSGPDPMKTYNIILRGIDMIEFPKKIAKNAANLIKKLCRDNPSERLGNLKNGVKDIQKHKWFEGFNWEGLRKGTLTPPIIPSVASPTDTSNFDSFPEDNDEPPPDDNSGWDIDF
# Sequence of Mitogen-activated protein kinase 1 (P28482 whole entry): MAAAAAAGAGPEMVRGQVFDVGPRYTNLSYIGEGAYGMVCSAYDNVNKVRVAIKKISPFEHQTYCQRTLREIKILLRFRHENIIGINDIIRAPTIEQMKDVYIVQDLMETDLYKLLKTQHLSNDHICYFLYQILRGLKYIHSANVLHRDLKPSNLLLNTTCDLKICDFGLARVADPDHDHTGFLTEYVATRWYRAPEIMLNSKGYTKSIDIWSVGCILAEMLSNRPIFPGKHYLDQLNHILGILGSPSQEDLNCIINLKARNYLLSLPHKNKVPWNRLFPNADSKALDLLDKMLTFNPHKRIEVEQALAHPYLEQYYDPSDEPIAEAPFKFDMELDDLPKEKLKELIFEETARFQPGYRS
# Sequence of Receptor-type tyrosine-protein kinase FLT3 (P36888 whole entry): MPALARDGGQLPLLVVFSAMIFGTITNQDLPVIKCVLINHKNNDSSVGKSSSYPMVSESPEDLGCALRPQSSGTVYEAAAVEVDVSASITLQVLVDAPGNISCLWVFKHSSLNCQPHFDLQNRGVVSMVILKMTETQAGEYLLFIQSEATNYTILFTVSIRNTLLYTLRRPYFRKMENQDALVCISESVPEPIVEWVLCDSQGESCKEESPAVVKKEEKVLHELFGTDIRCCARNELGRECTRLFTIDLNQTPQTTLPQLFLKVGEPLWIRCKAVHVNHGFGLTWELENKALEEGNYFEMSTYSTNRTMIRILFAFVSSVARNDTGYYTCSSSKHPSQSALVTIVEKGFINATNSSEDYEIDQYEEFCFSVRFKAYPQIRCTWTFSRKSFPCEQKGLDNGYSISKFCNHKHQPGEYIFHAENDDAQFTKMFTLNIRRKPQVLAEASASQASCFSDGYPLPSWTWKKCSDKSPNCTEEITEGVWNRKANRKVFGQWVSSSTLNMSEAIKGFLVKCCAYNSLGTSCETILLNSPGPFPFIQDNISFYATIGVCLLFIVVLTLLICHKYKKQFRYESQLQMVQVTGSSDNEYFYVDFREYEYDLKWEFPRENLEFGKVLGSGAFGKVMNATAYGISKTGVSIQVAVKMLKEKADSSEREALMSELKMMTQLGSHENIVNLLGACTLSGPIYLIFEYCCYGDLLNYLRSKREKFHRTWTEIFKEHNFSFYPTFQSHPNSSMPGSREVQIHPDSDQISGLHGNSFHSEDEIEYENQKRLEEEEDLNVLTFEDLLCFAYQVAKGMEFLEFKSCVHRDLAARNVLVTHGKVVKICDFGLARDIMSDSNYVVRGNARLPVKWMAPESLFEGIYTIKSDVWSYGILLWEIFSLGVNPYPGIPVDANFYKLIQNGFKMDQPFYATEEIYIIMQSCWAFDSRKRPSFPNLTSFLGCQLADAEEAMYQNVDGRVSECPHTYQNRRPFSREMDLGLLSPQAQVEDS
smiles,measurement,setting,value
O=C(COC(=O)c1ccc([N+](=O)[O-])s1)Nc1cccc(S(=O)(=O)/N=C2/CCCCCN2)c1,EC50,[1],> 53 µM (inactive)
same,AC50,Caspase-7,14.6 µM (active)
COc1ccc(C(C[N+](=O)[O-])c2c(C)[nH]n(-c3ccccc3)c2=O)cc1 (configuration not stated),AC50,[2],3 µM (active)
Oc1c2ccccc2c2c3c(cccc13)N=N2 [SP-600125],Ki,[3],> 10 µM (inactive)
same,Ki,[4],1.26 µM (active)
same,Ki,[5],3.16 µM (active)
same,Ki,[6],1.26 µM (active)
same,Ki,[7],0.316 µM (active)
same,Ki,SRSF protein kinase 1,> 7.94 µM (inactive)
same,IC50,[8],30.9 µM (inactive)
same,Ki,[9],> 2 µM (inactive)
same,Ki,[10],0.501 µM (active)
same,Ki,[11],0.0501 µM (active)
same,Ki,[12],5.01 µM (active)
same,Ki,[13],> 1.58 µM (inactive)
same,Ki,[14],0.2 µM (active)
same,Ki,[15],> 0.794 µM (inactive)
